Values quoted from earlier work as cited in patent publication US20060135599A1, “Use for pharmaceutical composition” (GW Pharma Limited, priority 2002, published 2006).

Columns and labels:
spasticity [1] = conditions: oral, nine patients
spasticity [2] = conditions: oral, 13 patients

With `CCCCCc1cc(O)c2c(c1)OC(C)(C)[C@@H]1CCC(C)=C[C@@H]21` [oral THC, Δ^9 tetrahydrocannabinol] as the molecule, how does the “spasticity compared with placebo” value (spasticity [1]) read?
Its value is “statistically significant reduction”.

What about the “subjective improvements in spasticity” value (spasticity [2]) of the same molecule?
Its value is “significant subjective improvements”.
